# System: SGK2
# Assay type: cell-based, human
Structure (SMILES),CapK sub (CCPM1),No-Substrate (CCPM1),PKB sub (CCPM1),SGK2 kinase activity (result in words)
COC[C@@H]([C@H](O)[C@H](O)C(=O)NCC[C@H](C)c1nc(/C=C/C[C@@H]2O[C@]3(C[C@@H](O)[C@@H]2C)O[C@H]([C@H](C[C@H](O)[C@H](C)[C@H](O)[C@H](C)/C=C(C)/C(C)=C/C=C/C(C)=C\C#N)OC)[C@H](OP(=O)(O)O)C3(C)C)co1)N(C)C [Calyculin A],59335,0,92540,stimulated SGK2 kinase activity
C=C1[C@@H](O)[C@@H]2O[C@]3(CC[C@H](/C=C/[C@@H](C)[C@@H]4CC(C)=C[C@@]5(O[C@H](C[C@@](C)(O)C(=O)O)CC[C@H]5O)O4)O3)CC[C@H]2O[C@@H]1[C@@H](O)C[C@H](C)[C@H]1O[C@@]2(CCCCO2)CC[C@H]1C [Okadaic Acid],161553,2078,132171,stimulated SGK2 kinase activity
